Values of other authors, collected in paper PMC11249953, “c-KIT inhibitors reduce pathology and improve behavior in the Tg(SwDI) model of Alzheimer’s disease” (Life Science Alliance, 2024).
Like-named read-outs stand apart in the source and are kept apart here.

Columns and labels:
[1] = tested on: c-KIT; parameters: method as in Dubreuil et al, 2009; settings: ref Dubreuil et al, 2009; cited from earlier work
[2] = ref Li et al, 2020, cited from earlier work
[3] = tested on: APPswe/PSEN1dE9 mice; parameters: method as in Li et al, 2020; settings: chronic oral treatment, ref Li et al, 2020; cited from earlier work

Question: What does the source list for Cc1ccc(NC(=O)c2ccc(CN3CCN(C)CC3)cc2)cc1Nc1nc(-c2cccnc2)cs1 [Masitinib]?
Answer: IC50 [1]: […]; brain penetrance [2]: poor brain penetrance; brain penetrance ([2]; listed as masitinib): poor brain penetrant; amyloid-β and neuroinflammation [3]: not reducing amyloid-β or attenuating neuroinflammation; spatial learning performance [3]: reverse spatial learning performance
